42 compounds from US12139488B2, “Pyrido[3,2-d]pyrimidine compounds uses thereof for treating a proliferative disease” (Universite de Montreal, priority 2021, dated 2024) can be followed below.

The first test deals with pERK in HCT-116 cells (KRAS G13D). Description: Phospho-ERK inhibition (AlphaLISA SureFire Ultra p-ERK 1/2), HCT116. In kind it is cell-based, human. Conditions: HCT116 cells; Ymin in brackets. The method, then: All cancer cell lines (A375, A101D, A2058, RKO, HT29 SK-MEL 30, IPC298, HepG2, HCT-116, Lovo, SWV620, SW480, NCI-H358, NCI-H2122, Calu-6, NCIH2087, NCIH1755, NCIH1666 and Mewo) were obtained from ATCC and cultured in RPMI-1640 medium (Gibco) supplemented with 5% heat inactivated fetal bovine serum (FBS, Wisent) at 37° C. under 5% CO2. Cells were maintained in T175 flasks (Greiner). They were passaged by removing the culture medium, washing once in 10 mL of room temperature Phosphate Buffered Saline (PBS; Wisent) and incubating at 37° C. with 2 mL of 0.05% Trypsin (Thermo-Fisher). Trypsin was then inactivated by adding complete growth medium and the cells were then replated in a T175 culture dish at the appropriate dilution. All cell lines were routinely tested for mycoplasma contamination. Tissue type and mutational status of each cell line can be found in Table B.
AlphaLISA® SureFire® Ultra™ p-ERK 1/2 (Thr202/Tyr204) analysis was conducted on cells plated in 100 μL of complete RPMI-1640 growth medium in 96-well flat-bottomed transparent dishes (Costar) at a density indicated in Table C. Cells were maintained overnight at 37° C. under 5% CO2 before treatment with compounds' dilution series for one hour. The cell density in cells/cm^2 corresponds to cell number divided by the area of one well of a 96-well plate ([…]).
In a dilution series 100 μL/well of test substance dilution prepared in complete RPMI-1640 growth media was added to the cells. The dilution series is selected so that ten concentrations cover a range from 10 μM to 0.33 nM. If necessary the initial concentration of 10 μM is increased to 100 μM or lowered to 1 μM (as in the case of A375 and H1666 cells, which are generally more sensitive to the compounds) and further dilution is carried out accordingly. The final concentration of DMSO in the assay is set at 0.5%.
After treatment, media was removed and cells were lysed in 50 μL of 1× AlphaScreen Ultra Lysis Buffer (Perkin Elmer). The AlphaLISA® SureFire® Ultra™ p-ERK 1/2 (Thr202/Tyr2O4) (PerkinElmer) reactions were performed with 5 μL of cell lysate according to the manufacturer's specifications in 384-well proxyplates (Perkin Elmer) followed by overnight incubation of the reactions at room temperature in a humidified chamber. After completion of the reactions, the signals were recorded on an EnVision plate reader (Perkin Elmer) using built in AlphaLISA® settings.
The effect of each compound dilution on the pERK signal was expressed in % inhibition and calculated as follows. An internal 100% inhibition control ([…] trametinib, cat #HY-10999; MedChem Express; CAS #871700-17-3) was included in each plate and used as a measure of pERK background. First, the value obtained for trametinib was subtracted from each data point. The average of DMSO (vehicle) controls (set as 0% inhibition) was established and used to calculate % inhibition: % inhibition=100*(1-((pERK signalcompound)/(pERK signalDMSO)))
The ability of each compound to inhibit pERK signal was expressed as an IC50 value obtained by plotting the inhibition values for each data point of a dilution series and fitting the obtained curves using a log(agonist) versus response-variable slope (four parameters) function using GraphPadPrism (V7.0) or Dotmatics Screening Ultra platform.
When present, paradoxical pERK induction is inferred from the negative % inhibition values observed in the pERK IC50 curves of a compound.
Consider `O=S(=O)(Nc1ccc(F)c(Nc2ncnc3ccc(-n4cnc5c(CN6CC(F)C6)cccc54)nc23)c1F)c1ccccc1Cl` [Example 227], for which the “HCT116 pERK Ymin %” value was −1.9%. Turning to `CCCNc1cccc2c1ncn2-c1ccc2ncnc(Nc3c(F)ccc(NS(=O)(=O)c4cccc(Cl)c4Cl)c3F)c2n1` [Example 242], the “HCT116 pERK Ymin %” value is reported as −7.4%.

The same test, now with this note: HCT116 cells; class symbol.
`O=S(=O)(Nc1ccc(F)c(Nc2ncnc3ccc(-n4cc(S(=O)(=O)C5CCN(CC6CC6)CC5)c5ccccc54)nc23)c1F)c1cccc(Cl)c1Cl` [Example 469] had a half-inhibitory concentration (IC50) of less than 500 nM.

For the compound `CCN1CCN(S(=O)(=O)c2cn(-c3ccc4ncnc(Nc5c(F)ccc(NS(=O)(=O)c6cccc(Cl)c6Cl)c5F)c4n3)c3ccccc23)CC1` [Ex 388], the IC50 is less than 500 nM.

`Cc1c(F)cccc1S(=O)(=O)Nc1ccc(F)c(Nc2ncnc3ccc(-n4cnc5c(N(CCCO)CCCO)cccc54)nc23)c1F` [Example 375]: the 50% inhibitory concentration (IC50) was less than 500 nM. The compound `O=S(=O)(Nc1ccc(F)c(Nc2ncnc3ccc(-n4cnc5c(CCO)cccc54)nc23)c1F)c1cccc(Cl)c1Cl` [Example 556] returned a half-inhibitory concentration (IC50) of less than 500 nM.

In turn, `CCOc1nccc2c1ncn2-c1ccc2ncnc(Nc3c(F)ccc(NS(=O)(=O)c4cccc(Cl)c4Cl)c3F)c2n1` [Example 513] returned a 50% inhibitory concentration (IC50) of 500 to 1000 nM. Same read-out and setting: the same measure for `O=S(=O)(Nc1ccc(F)c(Nc2ncnc3ccc(-n4cc(N5CCCCS5(=O)=O)c5ccccc54)nc23)c1F)c1cccc(Cl)c1Cl` [Example 514]: less than 500 nM; for `Cc1c(F)cccc1S(=O)(=O)Nc1ccc(F)c(Nc2ncnc3ccc(-n4cc5c(n4)CCCN5CCN)nc23)c1F` [Example 362]: 1000 to 10000 nM; for `O=S(=O)(Nc1ccc(F)c(Nc2ncnc3ccc(-n4cnc5c(N6CC[C@@H](O)C6)nccc54)nc23)c1F)c1cccc(Cl)c1Cl` [Example 512]: 1000 to 10000 nM. In turn, `O=S(=O)(Nc1ccc(F)c(Nc2ncnc3ccc(-n4cc(S(=O)(=O)N5CCN(C6CCCCC6)CC5)c5ccccc54)nc23)c1F)c1cccc(Cl)c1Cl` [Ex 380] came in with a half-inhibitory concentration (IC50) of 1000 to 10000 nM. For `CN(C)CCNS(=O)(=O)c1cn(-c2ccc3ncnc(Nc4c(F)ccc(NS(=O)(=O)c5cccc(Cl)c5Cl)c4F)c3n2)c2ccc(F)cc12` [Example 443], the IC50 was less than 500 nM. In turn, `O=S(=O)(Nc1ccc(F)c(Nc2ncnc3ccc(-n4cc(S(=O)(=O)N5CCN(c6ccccn6)CC5)c5ccccc54)nc23)c1F)c1cccc(Cl)c1Cl` [Ex 377] had an IC50 of 500 to 1000 nM. On the same count and under the same terms, the same measure for `CCOc1cccc2c1ncn2-c1ccc2ncnc(Nc3c(F)ccc(NS(=O)(=O)c4cccc(Cl)c4Cl)c3F)c2n1` [Example 525]: 500 to 1000 nM; for `CN1CCC(S(=O)(=O)c2cn(-c3ccc4ncnc(Nc5c(F)ccc(NS(=O)(=O)c6cccc(Cl)c6Cl)c5F)c4n3)c3ccccc23)CC1` [Example 467]: less than 500 nM; for `Cc1c(F)cccc1S(=O)(=O)Nc1ccc(F)c(Nc2ncnc3ccc(-n4ncc5c4CCCN5C)nc23)c1F` [Example 460]: 1000 to 10000 nM. Same read-out and setting: the same measure for `Cc1c(F)cccc1S(=O)(=O)Nc1ccc(F)c(Nc2ncnc3ccc(-n4cc(S(=O)(=O)N5CCC(N(C)C)CC5)c5ccccc54)nc23)c1F` [Ex 395]: less than 500 nM; for `CNCC(C)(C)S(=O)(=O)c1cn(-c2ccc3ncnc(Nc4c(F)ccc(NS(=O)(=O)c5cccc(Cl)c5Cl)c4F)c3n2)c2ccccc12` [Example 461]: less than 500 nM; for `O=S(=O)(Nc1ccc(F)c(Nc2ncnc3ccc(-n4cc(S(=O)(=O)N5CCN(CCO)CC5)c5ccccc54)nc23)c1F)c1cccc(Cl)c1Cl` [Ex 389]: less than 500 nM. The compound `Cc1cn(-c2ccc3ncnc(Nc4c(F)ccc(NS(=O)(=O)c5cccc(Cl)c5Cl)c4F)c3n2)cn1` [Example 553] displayed an IC50 of less than 500 nM. `CC(C)(CC(F)F)S(=O)(=O)c1cn(-c2ccc3ncnc(Nc4c(F)ccc(NS(=O)(=O)c5cccc(Cl)c5Cl)c4F)c3n2)c2ccccc12` [Example 499]: the IC50 is less than 500 nM. Regarding `O=S(=O)(Nc1ccc(F)c(Nc2ncnc3ccc(-n4cc(S(=O)(=O)C5CCNCC5)c5ccccc54)nc23)c1F)c1cccc(Cl)c1Cl` [Example 465], the half-maximal inhibitory concentration (IC50) was 500 to 1000 nM. `CS(=O)(=O)c1cn(-c2ccc3ncnc(Nc4c(F)ccc(NS(=O)(=O)c5cccc(Cl)c5Cl)c4F)c3n2)c2ccccc12` [Ex 381] displayed a half-maximal inhibitory concentration (IC50) of less than 500 nM.

Consider `Cc1c(F)cccc1S(=O)(=O)Nc1ccc(F)c(Nc2ncnc3ccc(-n4cc5c(n4)CCCN5C(=O)CN)nc23)c1F` [Example 392], for which the 50% inhibitory concentration (IC50) lay within 1000 to 10000 nM.

As to `Cc1c(F)cccc1S(=O)(=O)Nc1ccc(F)c(Nc2ncnc3ccc(-n4cnc5c(NCCO)cccc54)nc23)c1F` [Example 350], the IC50 is less than 500 nM. On to `O=C(c1cn(-c2ccc3ncnc(Nc4c(F)ccc(NS(=O)(=O)c5cccc(Cl)c5Cl)c4F)c3n2)c2ccccc12)C1CCOC1` (centres unmarked) [Example 500], for which the concentration for half-maximal inhibition (IC50) was in the range of 1000 to 10000 nM. In turn, `CN1CCCN(S(=O)(=O)c2cn(-c3ccc4ncnc(Nc5c(F)ccc(NS(=O)(=O)c6cccc(Cl)c6Cl)c5F)c4n3)c3ccccc23)CC1` [Ex 436] returned an IC50 of less than 500 nM. In turn, `O=S(=O)(Nc1ccc(F)c(Nc2ncnc3ccc(-n4cc(S(=O)(=O)N5CC6COCC6C5)c5ccccc54)nc23)c1F)c1cccc(Cl)c1Cl` (centres unmarked) [Ex 451] yielded an IC50 of less than 500 nM. With `Cc1c(F)cccc1S(=O)(=O)Nc1ccc(F)c(Nc2ncnc3ccc(-n4cnc5c(-c6cccnc6N)cccc54)nc23)c1F` [Example 424], the IC50 was less than 500 nM. `Cc1c(F)cccc1S(=O)(=O)Nc1ccc(F)c(Nc2ncnc3ccc(-n4ccc(C(=O)N(C)Cc5ccncc5)n4)nc23)c1F` [Example 334] had a half-inhibitory concentration (IC50) of less than 500 nM. Turning to `COCCCN(CCCOC)c1cccc2c1ncn2-c1ccc2ncnc(Nc3c(F)ccc(NS(=O)(=O)c4cccc(F)c4C)c3F)c2n1` [Example 384], the IC50 fell in the range of 1000 to 10000 nM. As to `Cc1c(F)cccc1S(=O)(=O)Nc1ccc(F)c(Nc2ncnc3ccc(-n4cnc(CO)c4)nc23)c1F` [Ex 379], the half-maximal inhibitory concentration (IC50) was in the range of 1000 to 10000 nM. Take `Cc1c(F)cccc1S(=O)(=O)Nc1ccc(F)c(Nc2ncnc3ccc(-n4cc5c(n4)CCCN5C)nc23)c1F` [Example 356]: the IC50 was less than 500 nM. Turning to `O=C1CCCCN1c1cn(-c2ccc3ncnc(Nc4c(F)ccc(NS(=O)(=O)c5cccc(Cl)c5Cl)c4F)c3n2)c2ccccc12` [Example 532], the IC50 lay in the range of 1000 to 10000 nM.

As for `CC(C)(O)CCNS(=O)(=O)c1cn(-c2ccc3ncnc(Nc4c(F)ccc(NS(=O)(=O)c5cccc(Cl)c5Cl)c4F)c3n2)c2ccccc12` [Ex 453], the IC50 was less than 500 nM. Turning to `CCN1CCN(S(=O)(=O)c2cn(-c3ccc4ncnc(Nc5c(F)ccc(NS(=O)(=O)c6cccc(F)c6C)c5F)c4n3)c3ccccc23)CC1` [Ex 396], the half-maximal inhibitory concentration (IC50) was less than 500 nM.

`Cc1c(F)cccc1S(=O)(=O)Nc1ccc(F)c(Nc2ncnc3ccc(-n4ncc5c4CCCN5CCO)nc23)c1F` [Example 425] came in with an IC50 of 500 to 1000 nM. In turn, `O=S(=O)(CC1CCCO1)c1cn(-c2ccc3ncnc(Nc4c(F)ccc(NS(=O)(=O)c5cccc(Cl)c5Cl)c4F)c3n2)c2ccccc12` (centres unmarked) [Ex 441] had an IC50 of 500 to 1000 nM. In turn, `Cc1c(F)cccc1S(=O)(=O)Nc1ccc(F)c(Nc2ncnc3ccc(-n4cc(S(=O)(=O)N5CCN(CCO)CC5)c5ccccc54)nc23)c1F` [Ex 397] yielded a 50% inhibitory concentration (IC50) of less than 500 nM. For the compound `Cc1cc([N+](=O)[O-])ccc1S(=O)(=O)Nc1ccc(F)c(Nc2ncnc3ccc(-n4cnc5c(N)cccc54)nc23)c1F` [Ex 368], the IC50 was in the range of 1000 to 10000 nM. Same read-out and setting: the same measure for `Cc1c(F)cccc1S(=O)(=O)Nc1ccc(F)c(Nc2ncnc3ccc(-n4cc5c(n4)CCCN5CCO)nc23)c1F` [Example 340]: less than 500 nM; for `CCC(=O)c1cn(-c2ccc3ncnc(Nc4c(F)ccc(NS(=O)(=O)c5cccc(Cl)c5Cl)c4F)c3n2)c2ccccc12` [Ex 471]: 1000 to 10000 nM.

Still in this test, the particulars now being: HCT116 cells; class symbol before the bracket.
`O=S(=O)(Nc1ccc(F)c(Nc2ncnc3ccc(-n4cnc5c(CN6CC(F)C6)cccc54)nc23)c1F)c1ccccc1Cl` [Example 227] had an IC50 of 500 to 1000 nM.

As to `CCCNc1cccc2c1ncn2-c1ccc2ncnc(Nc3c(F)ccc(NS(=O)(=O)c4cccc(Cl)c4Cl)c3F)c2n1` [Example 242], the IC50 lay within 1000 to 10000 nM.
